# Measurements taken from publication PMC4766392, “Identification and Characterization of the Glucose-6-Phosphate Dehydrogenase Gene Family in the Para Rubber Tree, Hevea brasiliensis” (Frontiers in Plant Science, 2016).
# Assays:
# Experiment in all cases: NADPH formation at […] nm, commercial kit, E. coli supernatant
# Format in all cases: biochemical
# Settings in all cases: 25°C, MBP fusion, empty-vector control
# HbG6PDH4 = biological target: T1, HbG6PDH4 (Hevea brasiliensis, UniProt A0A068LJB4)
# T1 construct: gene G6PDH-4; primer with start codon ATGTCGATGTCAATTTC
# T1 sequence (A0A068LJB4 entry or part of it): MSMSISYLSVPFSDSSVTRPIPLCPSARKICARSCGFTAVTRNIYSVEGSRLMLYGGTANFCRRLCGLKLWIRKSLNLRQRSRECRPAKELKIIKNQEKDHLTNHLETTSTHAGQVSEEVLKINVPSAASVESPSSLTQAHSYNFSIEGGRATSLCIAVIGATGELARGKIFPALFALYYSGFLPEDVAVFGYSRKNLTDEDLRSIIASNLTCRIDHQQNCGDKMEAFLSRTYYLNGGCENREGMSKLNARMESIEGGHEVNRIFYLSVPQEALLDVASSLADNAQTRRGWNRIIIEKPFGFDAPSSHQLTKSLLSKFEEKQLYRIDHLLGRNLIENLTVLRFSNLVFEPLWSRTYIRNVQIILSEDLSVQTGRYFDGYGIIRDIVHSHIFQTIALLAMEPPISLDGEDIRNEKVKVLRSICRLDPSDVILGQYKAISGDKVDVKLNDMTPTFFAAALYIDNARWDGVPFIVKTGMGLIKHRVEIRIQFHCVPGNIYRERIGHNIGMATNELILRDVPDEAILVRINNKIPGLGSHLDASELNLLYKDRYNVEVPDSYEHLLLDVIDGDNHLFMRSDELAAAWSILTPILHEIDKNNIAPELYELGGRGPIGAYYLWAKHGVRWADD
# HbG6PDH1 = biological target: T2, HbG6PDH1 (Hevea brasiliensis, UniProt A0A068LLN2)
# T2 construct: gene G6PDH-1; forward primer starts at ATGCCAAGAAAATATGG
# T2 sequence (A0A068LLN2 entry or part of it): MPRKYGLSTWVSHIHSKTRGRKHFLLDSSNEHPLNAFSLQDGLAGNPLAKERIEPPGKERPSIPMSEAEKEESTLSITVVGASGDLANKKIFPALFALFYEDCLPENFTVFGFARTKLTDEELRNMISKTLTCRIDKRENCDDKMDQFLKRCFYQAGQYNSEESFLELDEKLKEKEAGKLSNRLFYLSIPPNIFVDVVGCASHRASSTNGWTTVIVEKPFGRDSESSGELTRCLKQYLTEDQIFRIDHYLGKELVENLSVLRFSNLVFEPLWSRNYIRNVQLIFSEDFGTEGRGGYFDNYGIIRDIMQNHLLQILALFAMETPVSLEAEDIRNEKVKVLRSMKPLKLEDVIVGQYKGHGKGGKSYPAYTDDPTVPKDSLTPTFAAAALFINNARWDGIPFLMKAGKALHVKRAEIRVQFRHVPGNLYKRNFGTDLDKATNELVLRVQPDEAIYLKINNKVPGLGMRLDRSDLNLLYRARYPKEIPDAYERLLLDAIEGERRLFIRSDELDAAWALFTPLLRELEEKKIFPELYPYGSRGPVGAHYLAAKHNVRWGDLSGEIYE
# HbG6PDH3 = biological target: T3, HbG6PDH3 (Hevea brasiliensis, UniProt A0A068LJY6)
# T3 construct: gene G6PDH-3; primer with start codon ATGGGTTCGGGTCAGTGG
# T3 sequence (A0A068LJY6 entry or part of it): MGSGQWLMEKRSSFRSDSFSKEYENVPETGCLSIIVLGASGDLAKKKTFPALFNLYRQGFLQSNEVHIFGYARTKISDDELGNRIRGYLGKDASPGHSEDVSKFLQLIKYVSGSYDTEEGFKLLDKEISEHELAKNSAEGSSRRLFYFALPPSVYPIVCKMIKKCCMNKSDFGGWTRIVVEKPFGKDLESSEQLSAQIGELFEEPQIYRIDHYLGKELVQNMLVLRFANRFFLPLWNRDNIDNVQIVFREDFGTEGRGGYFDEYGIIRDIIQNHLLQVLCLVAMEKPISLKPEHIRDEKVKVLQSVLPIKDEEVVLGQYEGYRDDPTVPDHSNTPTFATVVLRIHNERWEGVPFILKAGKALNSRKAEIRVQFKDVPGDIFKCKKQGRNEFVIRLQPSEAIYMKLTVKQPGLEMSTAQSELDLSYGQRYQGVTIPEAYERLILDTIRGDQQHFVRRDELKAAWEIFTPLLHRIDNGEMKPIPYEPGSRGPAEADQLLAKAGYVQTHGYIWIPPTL
# HbG6PDH2 = biological target: T4, HbG6PDH2 (Hevea brasiliensis, UniProt A0A068LJJ9)
# T4 construct: gene G6PDH-2; forward primer starts at ATGGCGCCCCTTTC
# T4 sequence (A0A068LJJ9 entry or part of it): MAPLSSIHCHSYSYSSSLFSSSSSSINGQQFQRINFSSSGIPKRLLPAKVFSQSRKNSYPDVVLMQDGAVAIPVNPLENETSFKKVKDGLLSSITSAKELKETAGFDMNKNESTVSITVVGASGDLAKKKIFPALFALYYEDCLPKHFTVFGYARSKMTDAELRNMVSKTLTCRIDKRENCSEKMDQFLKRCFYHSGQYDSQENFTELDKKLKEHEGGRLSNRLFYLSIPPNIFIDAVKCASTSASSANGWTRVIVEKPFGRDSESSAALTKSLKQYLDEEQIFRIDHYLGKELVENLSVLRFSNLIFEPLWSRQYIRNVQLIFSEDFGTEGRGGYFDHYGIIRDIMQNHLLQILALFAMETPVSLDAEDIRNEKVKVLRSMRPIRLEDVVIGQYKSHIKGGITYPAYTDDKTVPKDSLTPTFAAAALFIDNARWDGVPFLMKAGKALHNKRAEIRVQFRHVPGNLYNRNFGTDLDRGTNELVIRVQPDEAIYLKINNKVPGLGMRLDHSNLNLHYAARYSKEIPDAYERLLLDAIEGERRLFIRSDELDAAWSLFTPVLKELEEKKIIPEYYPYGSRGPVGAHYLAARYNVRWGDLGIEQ
# [1] = glucose-6-phosphate as co-substrate
Compound,"NADPH formation at 340 nm, commercial kit, E. coli supernatant (HbG6PDH4; [1])","NADPH formation at 340 nm, commercial kit, E. coli supernatant (HbG6PDH1; [1])","NADPH formation at 340 nm, commercial kit, E. coli supernatant (HbG6PDH3; [1])","NADPH formation at 340 nm, commercial kit, E. coli supernatant (HbG6PDH2; [1])","NADPH formation at 340 nm, commercial kit, E. coli supernatant (HbG6PDH4; NADP+ as co-substrate)","NADPH formation at 340 nm, commercial kit, E. coli supernatant (HbG6PDH1; NADP+ as co-substrate)","NADPH formation at 340 nm, commercial kit, E. coli supernatant (HbG6PDH3; NADP+ as co-substrate)","NADPH formation at 340 nm, commercial kit, E. coli supernatant (HbG6PDH2; NADP+ as co-substrate)"
NC(=O)c1ccc[n+]([C@@H]2O[C@H](COP(=O)(O)OP(=O)(O)OC[C@H]3O[C@@H](n4cnc5c(N)ncnc54)[C@H](OP(=O)(O)O)[C@@H]3O)[C@@H](O)[C@H]2O)c1 [NADP^+],all four HbG6PDH genes encode enzymatically active G6PDHs,all four HbG6PDH genes encode enzymatically active G6PDHs,all four HbG6PDH genes encode enzymatically active G6PDHs,all four HbG6PDH genes encode enzymatically active G6PDHs,,,,
O=P(O)(O)OC[C@H]1OC(O)[C@H](O)[C@@H](O)[C@@H]1O (some centres unmarked) [glucose-6-phosphate],,,,,all four HbG6PDH genes encode enzymatically active G6PDHs,all four HbG6PDH genes encode enzymatically active G6PDHs,all four HbG6PDH genes encode enzymatically active G6PDHs,all four HbG6PDH genes encode enzymatically active G6PDHs
